Like-named read-outs stand apart in the source and are kept apart here. Values belong to the molecule of their own block, whether it stands above or below them.
Key:
RAD51 [1] = biological target: T1, RAD51 (Homo sapiens, UniProt Q06609); test: Fluorescence polarization-based DNA binding assay (RAD51-ssDNA binding); type: biochemical; details: for Emax: read-out: ssDNA binding Max effect; for IC50 / ssDNA binding IC50: Stim = stimulator; for influence on RAD51-ssDNA binding, in words: summary of Tables 2 and 3
T1 sequence (Q06609 1-339): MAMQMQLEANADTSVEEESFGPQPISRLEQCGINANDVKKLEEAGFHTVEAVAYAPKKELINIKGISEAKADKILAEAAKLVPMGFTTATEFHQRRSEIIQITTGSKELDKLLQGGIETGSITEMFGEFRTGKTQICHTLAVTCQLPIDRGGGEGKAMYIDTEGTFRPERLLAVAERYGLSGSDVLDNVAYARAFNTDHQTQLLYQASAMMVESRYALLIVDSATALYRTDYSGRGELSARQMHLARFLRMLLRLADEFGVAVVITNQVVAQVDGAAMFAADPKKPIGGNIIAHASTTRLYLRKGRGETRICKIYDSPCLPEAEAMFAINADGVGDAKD
Description: The fluorescence polarization-based DNA binding assay and purification of human RAD51 used for this assay was performed as previously described with a few modifications.^23 Reactions were carried out in black 384-well polystyrene plates. In each well, RAD51 protein was combined with reaction buffer and varying concentrations of compound in DMSO in an initial volume of 40 μl and incubated at 37° C. for 40 minutes. Then, 10 μl of reaction buffer containing fluorescently-labeled ssDNA substrate (5′-Alexa488-oligo-dT45) was added and the reaction incubated at 37° C. for another 40 minutes, after which the plate was read on a Tecan Infinite 200 Pro plate reader equipped with two sets of 485±25 nm/535±35 nm with parallel or perpendicularly-oriented polarization filters. In both steps of the reaction setup, buffer components were maintained at 20 mM HEPES-NaOH (pH 7.5), 2 mM ATP, 10 mM MgCl2, 0.1 mM TCEP-HCl (tris(2-carboxyethyl)phosphine), and 0.25 μM BSA. The final reaction contained 4% DMSO, 0.2 μM RAD51, 30 mM NaCl, 2% glycerol, and 2.22 nM ssDNA substrate. Compound IC50 values were obtained by least-squares regression fitting of appropriate linear, log, or sigmoid dose-response models to the data, with the standard error indicated. […]

RAD51 [2] = biological target: T1, RAD51; test: Gel-based D-loop assay; type: biochemical; details: for IC50: read-out: D-Loops IC50; for D-loop inhibitory activity, in words: summary of Tables 2 and 3
Description: Human RAD51 in reaction buffer was combined with compound in […] DMSO, incubated at 37° C. for 10 min, and then 1 μl of 5′-^32P-labeled 90-mer ssDNA (5′-[…]) with homology to the plasmid pRS306 ^34 was added and the reaction was incubated at 37° C. for an additional 5 minutes. 1 μl of supercoiled pRS306 was then added to the reaction and incubated at 37° C. for 20 minutes; at this point the reaction consisted of 25 mM HEPES-NaOH (pH 7.0), 1 mM ATP, 1 mM MgCl2, 1 mM DTT, 1.5 μM BSA, 4.5% DMSO, 0.5 μM RAD51, 11 mM NaCl, 1% glycerol, 20 nM ssDNA, and 5 nM pRS306. The reactions were de-proteinized with 0.8% SDS and 0.8 mg/ml proteinase K, mixed with gel loading buffer, and run on a 0.9% agarose/1×TAE gel, which was dried and exposed to a phosphor screen overnight and imaged on a Storm 860 PhosphorImager. Compound IC50 values were obtained by least-squares regression fitting of appropriate linear, log, or sigmoid dose-response models to the data, with the standard error indicated.
To improve upon the D-loop inhibitory activity, medicinal chemical studies were undertaken to optimize 8. First, different functional groups were appended to rings A and B as substituents, including alkyl groups of different sizes, electron withdrawing/donating groups, and hydrogen bond donor/acceptor groups. Next, replacement of the phenyl ring B with different heterocycles or other saturated/unsaturated rings was investigated in order to probe its role. For each of the prepared compounds, the gel-based D-loop assay and the microplate-based DNA binding assay were used to characterize the biochemical activities.

[3] = Table 2, cells marked ↓: compound inhibits RAD51-ssDNA binding
[4] = Table 3, cells marked ↓: compound inhibits RAD51-ssDNA binding
[5] = Table 3, cells marked ↑: compound stimulates RAD51-ssDNA binding

Emax (RAD51 [1]; [3]): 7 ± 38%
IC50 (RAD51 [2]; Table 2): 79.4 ± 6 µM
D-loop inhibitory activity, in words (RAD51 [2]): moderate
Structure (SMILES): c1ccc2c(c1)nc(-c1ccncc1)c1cccn12 [Compound 11b, 4-(Pyridin-4-yl)pyrrolo[1,2-a]quinoxaline]

IC50 (RAD51 [1]; Table 3): 57.8 ± 3 µM
Emax (RAD51 [1]; [4]): 92 ± 21%
Structure (SMILES): O=[N+]([O-])c1ccc(-c2nc3cc(O)ccc3n3cccc23)cc1 [Compound 12e, 4-(4-Nitrophenyl)pyrrolo[1,2-a]quinoxalin-7-ol]

IC50 (RAD51 [1]; Table 3): > 100 µM
Emax (RAD51 [1]; [4]): 29 ± 8%
influence on RAD51-ssDNA binding, in words (RAD51 [1]): only weakly influenced
D-Loops Max inhibition effect (RAD51 [2]; Table 3): 100 ± 4%
IC50 (RAD51 [2]; Table 3): 13.2 µM
Structure (SMILES): COc1ccc2c(c1)nc(-c1ccc(N)cc1)c1cccn12 [Compound 12c, 4-(7-Methoxypyrrolo[1,2-a]quinoxalin-4-yl)aniline]

Emax (RAD51 [1]; [3]): 11 ± 19%
D-Loops Max inhibition effect (RAD51 [2]; Table 2): 68 ± 7%
IC50 (RAD51 [2]; Table 2): 27.2 ± 3 µM
Structure (SMILES): c1ccc2c(c1)nc(-c1ccc(N3CCOCC3)cc1)c1cccn12 [Compound 9j, 4-(4-(Pyrrolo[1,2-a]quinoxalin-4-yl)phenyl)morpholine]

Emax (RAD51 [1]; [3]): 11 ± 9%
IC50 (RAD51 [2]; Table 2): 91.1 ± 10.3 µM
Structure (SMILES): Nc1cccc(-c2nc3ccccc3n3cccc23)c1 [Compound 9c, 3-(Pyrrolo[1,2-a]quinoxalin-4-yl)aniline]

IC50 (RAD51 [1]; Table 2): > 100 µM
Emax (RAD51 [1]; [3]): 6 ± 10%
IC50 (RAD51 [2]; Table 2): 71.7 ± 18.1 µM
D-loop inhibitory activity, in words (RAD51 [2]): moderate
Structure (SMILES): c1cncc(-c2nc3ccccc3n3cccc23)c1 [Compound 11a, 4-(Pyridin-3-yl)pyrrolo[1,2-a]quinoxaline]

Emax (RAD51 [1]; [4]): 16 ± 28%
D-Loops Max inhibition effect (RAD51 [2]; Table 3): 74 ± 5%
IC50 (RAD51 [2]; Table 3): 38.6 ± 6.2 µM
Structure (SMILES): COc1ccc2c(c1)nc(-c1cccnc1)c1cccn12 [Compound 13a, 7-Methoxy-4-(pyridin-3-yl)pyrrolo[1,2-a]quinoxaline]

ssDNA binding IC50 (RAD51 [1]; Table 3): Stim
Emax (RAD51 [1]; [5]): 131 ± 28%
influence on RAD51-ssDNA binding, in words (RAD51 [1]): stimulators
IC50 (RAD51 [2]; Table 3): > 100 µM
Structure (SMILES): CN(C)c1ccc(-c2nc3cc(OC(C)(C)C(N)=O)ccc3n3cccc23)cc1 [Compound 16, 2-((4-(4-(Dimethylamino)phenyl)pyrrolo[1,2-a]quinoxalin-7-yl)oxy)-2-methylpropanamide]

IC50 (RAD51 [1]; Table 3): 81.5 ± 16.6 µM
Emax (RAD51 [1]; [4]): 60 ± 18%
IC50 (RAD51 [2]; Table 3): 25 ± 5.1 µM
Structure (SMILES): Nc1ccc(-c2nc3cc(F)ccc3n3cccc23)cc1 [Compound 12i, 4-(7-Fluoropyrrolo[1,2-a]quinoxalin-4-yl)aniline]

Emax (RAD51 [1]; [3]): 14 ± 16%
Structure (SMILES): Oc1ccc(-c2nc3ccccc3n3cccc23)cc1 [Compound 9d]

IC50 (RAD51 [1]; Table 3): > 100 µM
Emax (RAD51 [1]; [4]): 42 ± 8%
IC50 (RAD51 [2]; Table 3): 34 ± 2.9 µM
Structure (SMILES): Nc1ccc(-c2nc3cc(F)c(F)cc3n3cccc23)cc1 [Compound 12l, 4-(7,8-Difluoropyrrolo[1,2-a]quinoxalin-4-yl)aniline]

ssDNA binding IC50 (RAD51 [1]; Table 3): Stim
Emax (RAD51 [1]; [5]): 117 ± 18%
influence on RAD51-ssDNA binding, in words (RAD51 [1]): stimulators
IC50 (RAD51 [2]; Table 3): 46.1 ± 2.8 µM
Structure (SMILES): CCCOc1ccc2c(c1)nc(-c1ccc(N)cc1)c1cccn12 [Compound 15a, 4-(7-Propoxypyrrolo[1,2-a]quinoxalin-4-yl)aniline]

ssDNA binding IC50 (RAD51 [1]; Table 3): Stim
Emax (RAD51 [1]; [5]): 65 ± 22%
D-loop inhibitory activity, in words (RAD51 [2]): nearly absent
Structure (SMILES): CN(C)c1ccc(-c2nc3cc(F)c(F)cc3n3cccc23)cc1 [Compound 12m, 4-(7,8-Difluoropyrrolo[1,2-a]quinoxalin-4-yl)-N,N-dimethylaniline]

ssDNA binding IC50 (RAD51 [1]; Table 2): Stim
Emax (RAD51 [1]; Table 2, cells marked ↑: compound stimulates RAD51-ssDNA binding): 69 ± 35%
influence on RAD51-ssDNA binding, in words (RAD51 [1]): modest influence
Structure (SMILES): c1ccc2c(c1)nc(-c1ccc(N3CCCC3)cc1)c1cccn12 [Compound 9i, 4-(4-(Pyrrolidin-1-yl)phenyl)pyrrolo[1,2-a]quinoxaline]

Reference: patent publication US10973819B2, “Small molecules inhibitors of RAD51” (The University of Chicago, priority 2016, dated 2021)
